From the NIST ThermoML archive (doi:10.1016/j.jct.2015.09.028)
± gives the expanded uncertainty stated by the source.

How the values were obtained:
[1] = xn = mol fraction of the nth substance listed; conditions: 93 kPa, Liquid; for viscosity: Concentric cylinders viscometry; for mass density: Vibrating tube method
[2] = molar heat capacity at constant pressure; xn = mol fraction of the nth substance listed; conditions: Liquid, Flow calorimetry

c1ccc(Oc2ccccc2)cc1 [diphenyl ether] + c1ccc(-c2ccccc2)cc1
[1]
Conditions | mass density, x1 = 0.55 [kg/m3] | mass density, x1 = 0.705 [kg/m3] | mass density, x1 = 0.85 [kg/m3] | mass density, x1 = 1 [kg/m3] | viscosity, x1 = 0.55 [mPa·s] | viscosity, x1 = 0.705 [mPa·s] | viscosity, x1 = 0.85 [mPa·s] | viscosity, x1 = 1 [mPa·s]
288.15 K | – | 1066.7 ± 1 | – | – | – | 5.12 ± 0.1 | – | –
293.15 K | – | 1062.4 ± 1 | – | – | – | 4.39 ± 0.09 | – | –
298.15 K | – | 1058.2 ± 1 | 1064.2 ± 1 | – | – | 3.81 ± 0.08 | 3.8 ± 0.08 | –
303.15 K | – | 1053.9 ± 1 | 1060 ± 1 | 1065.5 ± 1 | – | 3.34 ± 0.07 | 3.34 ± 0.07 | 3.33 ± 0.07
308.15 K | 1043.7 ± 1 | 1049.7 ± 1 | 1055.7 ± 1 | 1061.2 ± 1 | 2.99 ± 0.06 | 2.96 ± 0.06 | 2.96 ± 0.06 | 2.96 ± 0.06
313.15 K | 1039.5 ± 1 | 1045.4 ± 1 | 1051.3 ± 1 | 1056.9 ± 1 | 2.7 ± 0.06 | 2.64 ± 0.05 | 2.65 ± 0.05 | 2.65 ± 0.05
323.15 K | 1031.1 ± 1 | 1037 ± 1 | 1042.7 ± 1 | 1048.2 ± 1 | 2.15 ± 0.04 | 2.15 ± 0.04 | 2.16 ± 0.04 | 2.17 ± 0.04
333.15 K | 1022.6 ± 1 | 1028.5 ± 1 | 1034.1 ± 1 | 1039.6 ± 1 | 1.79 ± 0.04 | 1.79 ± 0.04 | 1.81 ± 0.04 | 1.82 ± 0.04
343.15 K | 1014.1 ± 1 | 1020 ± 1 | 1025.5 ± 1 | 1030.9 ± 1 | 1.52 ± 0.03 | 1.52 ± 0.03 | 1.54 ± 0.03 | 1.54 ± 0.03
353.15 K | 1005.6 ± 1 | 1011.5 ± 1 | 1016.9 ± 1 | 1022.3 ± 1 | 1.31 ± 0.03 | 1.31 ± 0.03 | 1.32 ± 0.03 | 1.33 ± 0.03
363.15 K | 997.5 ± 1 | 1003 ± 1 | 1008.3 ± 1 | 1013.7 ± 1 | 1.14 ± 0.02 | 1.14 ± 0.02 | 1.15 ± 0.02 | 1.16 ± 0.02
373.15 K | 989.2 ± 1 | 994.9 ± 1 | 999.8 ± 1 | 1005.2 ± 1 | 1 ± 0.02 | 1.01 ± 0.02 | 1.01 ± 0.02 | 1.03 ± 0.02

molar heat capacity at constant pressure [J/K/mol], [2]
Conditions | 100 kPa | 5000 kPa | 10000 kPa | 15000 kPa | 20000 kPa | 25000 kPa
293.15 K, x1 = 0.705 | 260.48 ± 5.3 | 258.49 ± 5.1 | 256.34 ± 5.1 | 255.18 ± 5.1 | 253.86 ± 5.1 | 252.7 ± 5.1
313.15 K, x1 = 0.55 | 273.53 ± 5.5 | 272.22 ± 5.4 | 270.76 ± 5.4 | 269.94 ± 5.4 | 269.29 ± 5.4 | 268.96 ± 5.4
313.15 K, x1 = 0.705 | 270.74 ± 5.5 | 269.58 ± 5.5 | 267.76 ± 5.3 | 267.1 ± 5.3 | 265.94 ± 5.3 | 265.11 ± 5.3
313.15 K, x1 = 0.85 | 272.02 ± 5.5 | 270.67 ± 5.4 | 270.17 ± 5.4 | 269.67 ± 5.4 | 269.5 ± 5.4 | 269.33 ± 5.4
313.15 K, x1 = 1 | 274.37 ± 5.4 | 273.52 ± 5.4 | 273.18 ± 5.4 | 272.5 ± 5.4 | 272.16 ± 5.4 | –
333.15 K, x1 = 0.55 | 285.75 ± 5.7 | 284.45 ± 5.7 | 284.29 ± 5.7 | 283.96 ± 5.7 | 283.8 ± 5.7 | –
333.15 K, x1 = 0.705 | 279.34 ± 5.6 | 278.02 ± 5.6 | 276.86 ± 5.6 | 275.54 ± 5.5 | 274.21 ± 5.5 | 273.39 ± 5.5
333.15 K, x1 = 0.85 | 285.1 ± 5.7 | 284.6 ± 5.7 | 284.27 ± 5.7 | 284.1 ± 5.7 | 283.76 ± 5.7 | 283.43 ± 5.7
333.15 K, x1 = 1 | 286.97 ± 5.8 | 285.95 ± 5.8 | 284.93 ± 5.8 | 284.59 ± 5.8 | 283.39 ± 5.6 | 282.71 ± 5.6
353.15 K, x1 = 0.55 | 295.7 ± 5.9 | 294.88 ± 5.9 | 294.55 ± 5.9 | 294.39 ± 5.9 | 293.25 ± 5.9 | 293.09 ± 5.9
353.15 K, x1 = 0.705 | 290.93 ± 5.8 | 289.27 ± 5.8 | 287.62 ± 5.8 | 286.96 ± 5.8 | 285.47 ± 5.8 | 283.98 ± 5.6
353.15 K, x1 = 0.85 | 299.2 ± 6 | 297.86 ± 6 | 297.69 ± 6 | 297.35 ± 6 | 297.19 ± 6 | 296.68 ± 5.9
353.15 K, x1 = 1 | 299.05 ± 6 | 298.03 ± 6 | 296.84 ± 6 | 296.33 ± 6 | 295.48 ± 6 | 294.63 ± 6
